For the assay, the target named is Vasopressin V1a receptor (Homo sapiens, UniProt P37288). Nature of the assay: competition binding assay: The human V1a receptor was cloned by RT-PCR from total human liver RNA. The coding sequence was subcloned in an expression vector after sequencing to confirm the identity of the amplified sequence. […] Cell membranes were prepared from HEK293 cells transiently transfected with the expression vector and grown in 20 liter fermenters with the following protocol.50 g of cells are re-suspended in 30 ml freshly prepared ice cold Lysis buffer (50 mM HEPES, 1 mM EDTA, 10 mM MgCl2 adjusted to pH=7.4+complete cocktail of protease inhibitor (Roche Diagnostics)). Homogenized with Polytron for 1 min and sonicated on ice for 2×2 minutes at 80% intensity (Vibracell sonicator). The preparation is centrifuged 20 min at 500 g at 4° C., the pellet is discarded and the supernatant centrifuged 1 hour at 43,000 g at 4° C. (19,000 rpm). The pellet is re-suspended in 12.5 ml Lysis buffer+12.5 ml Sucrose 20% and homogenized using a Polytron for 1-2 min. The protein concentration is determined by the Bradford method and aliquots are stored at −80° C. until use. For binding studies 60 mg Yttrium silicate SPA beads (Amersham) are mixed with an aliquot of membrane in binding buffer (50 mM Tris, 120 mM NaCl, 5 mM KCl, 2 mM CaCl2, 10 mM MgCl2) for 15 minutes with mixing. […].
Chain of Vasopressin V1a receptor (P37288 whole entry): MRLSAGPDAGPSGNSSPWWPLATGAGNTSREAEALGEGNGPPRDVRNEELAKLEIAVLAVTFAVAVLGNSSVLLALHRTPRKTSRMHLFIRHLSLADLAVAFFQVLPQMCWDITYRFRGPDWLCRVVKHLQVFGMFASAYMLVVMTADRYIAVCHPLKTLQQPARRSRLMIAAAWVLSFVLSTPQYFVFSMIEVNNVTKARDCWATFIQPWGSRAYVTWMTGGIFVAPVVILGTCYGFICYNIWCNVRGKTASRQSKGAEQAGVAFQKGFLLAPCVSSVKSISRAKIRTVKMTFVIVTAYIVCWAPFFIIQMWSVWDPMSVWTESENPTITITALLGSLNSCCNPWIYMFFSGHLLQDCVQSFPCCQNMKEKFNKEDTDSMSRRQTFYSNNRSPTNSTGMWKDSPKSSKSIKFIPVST

One may read the Ki as the equilibrium dissociation constant of an inhibitor or competing ligand from its target. The low end stands for higher affinity, the high end for lower affinity. `C/C(=C1\SC(N2CCC3(CC2)OCc2ccccc23)=NC1=O)c1ccc(Cl)nc1` had a Ki of 3.16 nM. Then `C/C(=C1/SC(N2CCC3(CC2)OCc2ccccc23)=NC1=O)c1nccs1`, with 1 nM.
